Assay results from the OligoGym collection.
After the bases stand the sugars from the 5' end (letter, count) and the backbone: PS all phosphorothioate, else s phosphorothioate and o phosphodiester by linkage. Methylation of C is not given here. e = 2'-O-(2-methoxyethyl) (MOE); k = constrained ethyl (cEt); d = 2'-deoxy (DNA); m = 2'-O-methyl

Target: HSD17B13
Details: ASO, HepaRG

## GAGATAAAGCTGCCTG (sugars k3 d9 k3 e1, PS)
1 µM
  target mRNA inhibition: 55%

## GAGCTAGACAATTGCA (sugars k3 d10 k3, PS)
1 µM
  target mRNA inhibition: 73%

## GAGGATAGTCCATGCA (sugars k3 d10 k3, PS)
1 µM
  target mRNA inhibition: 59%

## GAGGATAGTGAACATA (sugars k3 d10 k3, PS)
1 µM
  target mRNA inhibition: 50%

## GAGGGTCCACTTTTGG (sugars k3 d10 k3, PS)
1 µM
  target mRNA inhibition: 23%

## GAGTATTTCCTCTGGG (sugars k3 d10 k3, PS)
1 µM
  target mRNA inhibition: 23%

## GAGTTATTGTAGGGAT (sugars k3 d10 k3, PS)
1 µM
  target mRNA inhibition: 69%

## GAGTTGCACCGTTTTG (sugars k3 d9 k3 e1, PS)
1 µM
  target mRNA inhibition: 62%

## GATACACCAATGCAGT (sugars k3 d10 k3, PS)
1 µM
  target mRNA inhibition: 73%

## GATACTATTCTCCAAC (sugars k3 d10 k3, PS)
1 µM
  target mRNA inhibition: 44%

## GATAGAGCACATGGCC (sugars k3 d10 k3, PS)
1 µM
  target mRNA inhibition: 20%

## GATAGTCCATGCAAAA (sugars k3 d10 k3, PS)
1 µM
  target mRNA inhibition: 64%

## GATATACGATGGAACA (sugars k3 d10 k3, PS)
1 µM
  target mRNA inhibition: 46%

## GATATACTGTCCCAGC (sugars k3 d10 k3, PS)
1 µM
  target mRNA inhibition: 34%

## GATATGTCAATACTCC (sugars k3 d10 k3, PS)
1 µM
  target mRNA inhibition: 59%

## GATATTATGTTCTTGG (sugars k3 d10 k3, PS)
1 µM
  target mRNA inhibition: 59%

## GATATTCTGTGGCATG (sugars k3 d9 k3 e1, PS)
0.02 µM
  target mRNA inhibition: 8%
0.078 µM
  target mRNA inhibition: 0%
0.313 µM
  target mRNA inhibition: 43%
1 µM
  target mRNA inhibition: 71%
1.25 µM
  target mRNA inhibition: 65%
5 µM
  target mRNA inhibition: 80%

## GATAUTCTGTGGCATG (sugars k3 d1 m1 d8 k3, PS)
1 µM
  target mRNA inhibition: 60%

## GATCAAATGTATGTGC (sugars k3 d10 k3, PS)
1 µM
  target mRNA inhibition: 25%

## GATCCTATATACATCC (sugars k3 d10 k3, PS)
1 µM
  target mRNA inhibition: 49%

## GATCTAAAACTGAAGG (sugars k3 d10 k3, PS)
1 µM
  target mRNA inhibition: 44%

## GATCTAGAACACTTGC (sugars k3 d10 k3, PS)
1 µM
  target mRNA inhibition: 27%

## GATGAGAGTCTTTCTT (sugars k3 d10 k3, PS)
1 µM
  target mRNA inhibition: 26%

## GATGCTAAAAGCTCAC (sugars k3 d10 k3, PS)
1 µM
  target mRNA inhibition: 46%

## GATGCTCCATAATAAT (sugars k3 d9 k3 e1, PS)
1 µM
  target mRNA inhibition: 15%

## GATGGTAAGGAGTAGT (sugars k3 d10 k3, PS)
1 µM
  target mRNA inhibition: 28%

## GATGTAGTGGGAGTCG (sugars k3 d10 k3, PS)
1 µM
  target mRNA inhibition: 67%

## GATGTCAGACCTCTGT (sugars k3 d10 k3, PS)
1 µM
  target mRNA inhibition: 6%

## GATGTTGACCTCAAAT (sugars k3 d10 k3, PS)
1 µM
  target mRNA inhibition: 0%

## GATTAAGCAGAATTGT (sugars k3 d9 k3 e1, PS)
1 µM
  target mRNA inhibition: 28%

## GATTAATTCCCTTCCA (sugars k3 d10 k3, PS)
1 µM
  target mRNA inhibition: 30%

## GATTGAGTTCTCCACT (sugars k3 d10 k3, PS)
1 µM
  target mRNA inhibition: 45%

## GATTGCATAAGAGCCA (sugars k3 d10 k3, PS)
0.02 µM
  target mRNA inhibition: 6%
0.078 µM
  target mRNA inhibition: 31%
0.313 µM
  target mRNA inhibition: 57%
1 µM
  target mRNA inhibition: 82%
1.25 µM
  target mRNA inhibition: 67%
5 µM
  target mRNA inhibition: 58%

## GATTGGAATGCTACTT (sugars k3 d10 k3, PS)
1 µM
  target mRNA inhibition: 58%

## GATTGGAATGCTACTT (sugars kkkddddkddddkkke, PS)
1 µM
  target mRNA inhibition: 59%

## GATTTAGTTGGTAGCT (sugars k3 d10 k3, PS)
1 µM
  target mRNA inhibition: 63%

## GCAAAGATCTGGCCAG (sugars k3 d10 k3, PS)
1 µM
  target mRNA inhibition: 22%

## GCAAGCCAACAGAGAG (sugars kkdddddddddkekek, PS)
1 µM
  target mRNA inhibition: 12%

## GCAAGGATACCTGAAA (sugars k3 d10 k3, PS)
1 µM
  target mRNA inhibition: 67%

## GCACCGTTTTGGGCTA (sugars k3 d1 m1 d8 k3, PS)
1 µM
  target mRNA inhibition: 67%

## GCACTAAAGGTTTCTG (sugars k3 d10 k3, PS)
0.02 µM
  target mRNA inhibition: 24%
0.078 µM
  target mRNA inhibition: 39%
0.313 µM
  target mRNA inhibition: 58%
1 µM
  target mRNA inhibition: 75%
1.25 µM
  target mRNA inhibition: 79%
5 µM
  target mRNA inhibition: 90%

## GCAGAGACATGAGGTT (sugars k3 d10 k3, PS)
1 µM
  target mRNA inhibition: 55%

## GCAGCTAAAATCCAAT (sugars k3 d10 k3, PS)
1 µM
  target mRNA inhibition: 70%

## GCAGTTATTAGAAGTC (sugars kkdddddddddkekek, PS)
1 µM
  target mRNA inhibition: 68%

## GCAGUTATTAGAAGTC (sugars k3 d1 m1 d8 k3, PS)
1 µM
  target mRNA inhibition: 59%

## GCATAAGAGATGAGTA (sugars k3 d10 k3, PS)
1 µM
  target mRNA inhibition: 33%

## GCATCTTAAGATACCC (sugars k3 d10 k3, PS)
0.02 µM
  target mRNA inhibition: 16%
0.078 µM
  target mRNA inhibition: 45%
0.313 µM
  target mRNA inhibition: 82%
1 µM
  target mRNA inhibition: 82%
1.25 µM
  target mRNA inhibition: 89%
5 µM
  target mRNA inhibition: 97%

## GCATCTTAAGATACCC (sugars kkdddddddddkekek, PS)
1 µM
  target mRNA inhibition: 41%

## GCATGGCTACAGATTG (sugars k3 d9 k3 e1, PS)
1 µM
  target mRNA inhibition: 67%

## GCATTAAAACTCTCAT (sugars k3 d10 k3, PS)
1 µM
  target mRNA inhibition: 35%

## GCATTAATGCCACCCT (sugars k3 d9 k3 e1, PS)
1 µM
  target mRNA inhibition: 51%

## GCATTATTCACCACGA (sugars k3 d10 k3, PS)
1 µM
  target mRNA inhibition: 59%

## GCATTGAAAAGATGTA (sugars k3 d10 k3, PS)
1 µM
  target mRNA inhibition: 0%

## GCATTGATTCGAAACT (sugars k3 d10 k3, PS)
1 µM
  target mRNA inhibition: 66%

## GCATTGTAATCTTGAG (sugars k3 d10 k3, PS)
1 µM
  target mRNA inhibition: 35%

## GCCAACAGCGGCAAAT (sugars k3 d10 k3, PS)
1 µM
  target mRNA inhibition: 30%

## GCCAAGGGAACACTGT (sugars k3 d10 k3, PS)
1 µM
  target mRNA inhibition: 61%

## GCCAGGGAATGCTCAT (sugars k3 d10 k3, PS)
1 µM
  target mRNA inhibition: 38%

## GCCATAATCTGTGATT (sugars k3 d10 k3, PS)
1 µM
  target mRNA inhibition: 0%

## GCCCTAGATTCTACAC (sugars k3 d10 k3, PS)
1 µM
  target mRNA inhibition: 15%

## GCCTAAACAAACACTA (sugars k3 d10 k3, PS)
1 µM
  target mRNA inhibition: 37%

## GCCTTGAATAGCAAGC (sugars kkdddddddddkekek, PS)
1 µM
  target mRNA inhibition: 16%

## GCCTTTTAACTACCCT (sugars k3 d10 k3, PS)
1 µM
  target mRNA inhibition: 0%

## GCTAAAAGCTCACCAA (sugars k3 d10 k3, PS)
1 µM
  target mRNA inhibition: 26%

## GCTAAACCCTGGAGCA (sugars k3 d10 k3, PS)
1 µM
  target mRNA inhibition: 5%

## GCTACAGATTGGAATG (sugars k3 d10 k3, PS)
1 µM
  target mRNA inhibition: 47%

## GCTACTTGAACAGTCT (sugars k3 d10 k3, PS)
1 µM
  target mRNA inhibition: 66%

## GCTAGGGAAATCTTTC (sugars k3 d10 k3, PS)
1 µM
  target mRNA inhibition: 66%

## GCTAGTGCCAAACCAA (sugars k3 d1 m1 d8 k3, PS)
1 µM
  target mRNA inhibition: 65%

## GCTAGTGCCAAACCAA (sugars k3 d10 k3, PS)
0.02 µM
  target mRNA inhibition: 0%
0.078 µM
  target mRNA inhibition: 8%
0.313 µM
  target mRNA inhibition: 39%
1 µM
  target mRNA inhibition: 70%
1.25 µM
  target mRNA inhibition: 65%
5 µM
  target mRNA inhibition: 87%

## GCTAGTGCCAAACCAA (sugars kkdddddddddkekek, PS)
1 µM
  target mRNA inhibition: 62%
